Here are results for three compounds from US20240246964A1 (Arbutus Biopharma Corporation, priority 2021, published 2024).

Test [1] deals with human PD-L1 (Homo sapiens (Human), UniProt Q9NZQ7). Description: T cell activation luciferase reporter cell culture system (T Cell Activation Assay). Conditions: luciferase reporter assay; PD-L1 aAPC/CHO-K1 cells with PD-1 effector Jurkat T cells. In kind it is cell-based. (A reporter such as luciferase makes a cellular process visible.)
For test [2], the system named is HBV-specific T cells. Description: HBV-specific T cell reinvigoration in vitro assay using PBMCs from chronic hepatitis B patients. In kind it is cell-based, human. Conditions: relative to HBV-specific peptide treatment alone, 24 hours; for Fold Change in IFN-γ Expression of HBV-specific T Cells, Mean ± SD: Mean ± SD of nine chronic hepatitis B donors. How it is done:
In one aspect, this assay measures the ability of a PD-L1 inhibitor to increase HBV specific T cell activity in an infected subject, as measured by the increase in interferon-gamma expression by those T cells.
The ability of PD-L1 inhibitor compounds to reinvigorate HBV-specific T cell activity was assessed as described. PBMCs from nine chronic hepatitis B patients were obtained by Ficoll separation of fresh whole blood and frozen in liquid nitrogen as described previously (Park et al., Nature Communications, 2021; 12:1222). Frozen PBMCs were thawed and plated into 12-well plates at 2×10^6 cells/ml. PBMCs were rested overnight at 37° C. before they were stimulated with HBV-specific peptide pools and allowed to proliferate for 5 days. Expanded PBMCs were then restimulated with HBV-specific peptide pools alone or stimulated with HBV-specific peptide pools and incubated with compounds 89, 90, and 139, a negative control, or anti-PD-L1 antibody as reference. Supernatant was obtained after 24 hours and assayed for IFN-γ using the Luminex platform. Fold change increase in IFN-γ expression mediated by compound treatment relative to HBV-specific peptide treatment alone was determined (Table 3).

The target of test [3] is PD-L1 His protein / PD-1 Fc protein (Homo sapiens (Human), UniProt Q9NZQ7). In words: HTRF Assay (PD-1/PD-L1 interaction). Format: binding. Conditions: PD-L1 His 6 nM, PD-1 Fc 6 nM. Background: TR-FRET usually uses a lanthanide donor and a delayed reading to cut background.
PD-L1 His protein / PD-1 Fc protein, sequence (Q9NZQ7 19-238): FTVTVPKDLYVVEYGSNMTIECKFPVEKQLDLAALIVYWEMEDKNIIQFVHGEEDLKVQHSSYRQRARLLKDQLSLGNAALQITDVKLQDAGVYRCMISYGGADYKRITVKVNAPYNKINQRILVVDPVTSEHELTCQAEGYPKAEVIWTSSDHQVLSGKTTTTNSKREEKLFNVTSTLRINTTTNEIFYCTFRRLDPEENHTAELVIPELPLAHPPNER
Test [4] relates to MC38 tumors expressing human PD-L1. In words: In vivo anti-tumor efficacy in humanized PD-L1 and PD-1 expressing MC38 tumor mouse model. On the procedure: In one aspect, this assay measures the ability of a PD-L1 inhibitor to reduce the size of MC38 (a murine colon adenocarcinoma cell line) tumors in mice, as an indication of the PD-L1 inhibitor's ability to help treat, ameliorate, and/or prevent cancer in the subject.
In vivo anti-tumor efficacy of compounds was evaluated in mice expressing humanized PD-1 and PD-L1, in which the extracellular domains of murine PD-1 and PD-L1 were genetically replaced with the human extracellular domain counterparts (Huang et al., Scientific Reports, 2017; 7:42687). Humanized PD-1/PD-L1 (hPD-1/hPD-L1) mice were subcutaneously implanted with the colorectal cancer cell line MC38 expressing human PD-L1 and compound treatment initiated when tumor volumes reached approximately 100 mm^3. Compounds were administered via oral gavage once daily at: 30 mg/kg between study days 1 and 7; or 10 mg/kg for 28 days. The anti-PD-L1 monoclonal antibody atezolizumab was included as a positive reference control and administered via intraperitoneal injection at 0.3 mg/kg thrice weekly between study days 1 and 15. Tumor lengths and widths were measured by digital caliper and tumor volumes were calculated by the formula: […].

The term EC50 denotes the concentration needed to bring the measured effect to its halfway point. A low value points to a more potent agent. Broadly, the IC50 is the concentration that inhibits the measured activity by half. A higher IC50 goes with weaker potency.

human PD-L1, sequence (Q9NZQ7 19-290): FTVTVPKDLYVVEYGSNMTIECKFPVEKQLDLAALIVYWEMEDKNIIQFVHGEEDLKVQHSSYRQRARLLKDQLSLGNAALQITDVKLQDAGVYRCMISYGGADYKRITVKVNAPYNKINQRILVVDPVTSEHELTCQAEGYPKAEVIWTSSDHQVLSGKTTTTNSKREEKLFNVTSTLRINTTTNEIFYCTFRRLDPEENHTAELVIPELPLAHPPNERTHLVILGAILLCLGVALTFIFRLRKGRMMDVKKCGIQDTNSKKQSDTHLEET

Consider `COc1cc(-c2nccc(-c3cccc(-c4ccc(CN5CC6(C5)CN(C(C)=O)C6)c(OC)n4)c3Cl)c2Cl)ccc1CN1CC2(C1)CN(C(C)=O)C2` [Compound 90, 1-(6-((6-(3-(2-(4-((6-acetyl-2,6-diazaspiro[3.3]heptan-2-yl)methyl)-3-methoxyphenyl)-3-chloropyridin-4-yl)-2-chlorophenyl)-2-methoxypyridin-3-yl)methyl)-2,6-diazaspiro[3.3]heptan-2-yl)ethan-1-one], for which a half-maximal response in test [1] (EC50) required 58.3 nM. The “Fold Change in IFN-γ Expression of HBV-specific T Cells” value in test [2] (Chronic Hepatitis B Donor 1) is given as 1.7 Fold Change; in test [2] (Chronic Hepatitis B Donor 2), 2.2 Fold Change; in test [2] (Chronic Hepatitis B Donor 3), 1.9 Fold Change; in test [2] (Chronic Hepatitis B Donor 4) it was 3.0 Fold Change; in test [2] (Chronic Hepatitis B Donor 5), 1.2 Fold Change; in test [2] (Chronic Hepatitis B Donor 6), 2.5 Fold Change. Further, the “Fold Change in IFN-γ Expression of HBV-specific T Cells” value in test [2] (Chronic Hepatitis B Donor 7) turned out to be 1.5 Fold Change; in test [2] (Chronic Hepatitis B Donor 8), 2.1 Fold Change; in test [2] (Chronic Hepatitis B Donor 9) it was 1.2 Fold Change. In addition, in test [2], the “Fold Change in IFN-γ Expression of HBV-specific T Cells, Mean ± SD” value is given as 1.9 ± 0.6 Fold Change. For the same compound, the IC50 in test [3] is 0.7 nM.

With atezolizumab, the “Tumor Volume (group mean)” value in test [4] (intraperitoneal 0.3 mg/kg thrice weekly, study days 1 to 15, study day 2) stood at 122 mm^3; in test [4] (intraperitoneal 0.3 mg/kg thrice weekly, study days 1 to 15, study day 5), 162 mm^3; in test [4] (intraperitoneal 0.3 mg/kg thrice weekly, study days 1 to 15, study day 9) it was 156 mm^3; in test [4] (intraperitoneal 0.3 mg/kg thrice weekly, study days 1 to 15, study day 12), 192 mm^3; in test [4] (intraperitoneal 0.3 mg/kg thrice weekly, study days 1 to 15, study day 16) it was 242 mm^3; in test [4] (intraperitoneal 0.3 mg/kg thrice weekly, study days 1 to 15, study day 19) it was 243 mm^3. In addition, the “Tumor Volume (group mean)” value in test [4] (intraperitoneal 0.3 mg/kg thrice weekly, study days 1 to 15, study day 23) is given as 341 mm^3; in test [4] (intraperitoneal 0.3 mg/kg thrice weekly, study days 1 to 15, study day 26), 429 mm^3; in test [4] (intraperitoneal 0.3 mg/kg thrice weekly, study days 1 to 15, study day 28), 472 mm^3; in test [4] (intraperitoneal 0.3 mg/kg thrice weekly, study days 1 to 15, study day −1), 105 mm^3.

For `COc1cc(-c2nccc(-c3cccc(-c4ccc(CN5CC6(CNC(=O)C6)C5)c(OC)n4)c3Cl)c2Cl)ccc1CN1CC2(CNC(=O)C2)C1` [Compound 89, 2-(4-(3-chloro-4-(2-chloro-3-(6-methoxy-5-((7-oxo-2,6-diazaspiro[3.4]octan-2-yl)methyl)pyridin-2-yl)phenyl)pyridin-2-yl)-2-methoxybenzyl)-2,6-diazaspiro[3.4]octan-7-one], the 50% effective concentration (EC50) in test [1] came out at 16.5 nM. Besides, the “Fold Change in IFN-γ Expression of HBV-specific T Cells” value in test [2] (Chronic Hepatitis B Donor 1) came out at 2.0 Fold Change; in test [2] (Chronic Hepatitis B Donor 2), 2.0 Fold Change; in test [2] (Chronic Hepatitis B Donor 3) it was 1.5 Fold Change; in test [2] (Chronic Hepatitis B Donor 4) it was 3.7 Fold Change; in test [2] (Chronic Hepatitis B Donor 5), 1.5 Fold Change; in test [2] (Chronic Hepatitis B Donor 6), 2.7 Fold Change. Besides, the “Fold Change in IFN-γ Expression of HBV-specific T Cells” value in test [2] (Chronic Hepatitis B Donor 7) is reported as 1.3 Fold Change; in test [2] (Chronic Hepatitis B Donor 8), 2.2 Fold Change; in test [2] (Chronic Hepatitis B Donor 9), 1.5 Fold Change. The “Fold Change in IFN-γ Expression of HBV-specific T Cells, Mean ± SD” value in test [2] is recorded as 2.0 ± 0.8 Fold Change. The IC50 in test [3] amounted to 0.5 nM. The “Tumor Volume (group mean)” value in test [4] (10 mg/kg × 28 days, oral gavage once daily, study day 2) came out at 122 mm^3; in test [4] (10 mg/kg × 28 days, oral gavage once daily, study day 5), 170 mm^3; in test [4] (10 mg/kg × 28 days, oral gavage once daily, study day 9) it was 227 mm^3; in test [4] (10 mg/kg × 28 days, oral gavage once daily, study day 12), 223 mm^3; in test [4] (10 mg/kg × 28 days, oral gavage once daily, study day 16), 222 mm^3; in test [4] (10 mg/kg × 28 days, oral gavage once daily, study day 19), 252 mm^3. Also, the “Tumor Volume (group mean)” value in test [4] (10 mg/kg × 28 days, oral gavage once daily, study day 23) worked out at 279 mm^3; in test [4] (10 mg/kg × 28 days, oral gavage once daily, study day 26), 328 mm^3; in test [4] (10 mg/kg × 28 days, oral gavage once daily, study day 28) it was 346 mm^3; in test [4] (10 mg/kg × 28 days, oral gavage once daily, study day −1), 105 mm^3; in test [4] (30 mg/kg × 7 days, oral gavage once daily, study day 2), 116 mm^3; in test [4] (30 mg/kg × 7 days, oral gavage once daily, study day 5), 164 mm^3. The “Tumor Volume (group mean)” value in test [4] (30 mg/kg × 7 days, oral gavage once daily, study day 9) turned out to be 176 mm^3; in test [4] (30 mg/kg × 7 days, oral gavage once daily, study day 12), 212 mm^3; in test [4] (30 mg/kg × 7 days, oral gavage once daily, study day 16) it was 243 mm^3; in test [4] (30 mg/kg × 7 days, oral gavage once daily, study day 19), 310 mm^3; in test [4] (30 mg/kg × 7 days, oral gavage once daily, study day 23) it was 418 mm^3; in test [4] (30 mg/kg × 7 days, oral gavage once daily, study day 26), 564 mm^3. The “Tumor Volume (group mean)” value amounted to 607 mm^3 in test [4] (30 mg/kg × 7 days, oral gavage once daily, study day 28) and 105 mm^3 in test [4] (30 mg/kg × 7 days, oral gavage once daily, study day −1).
